Test results from patent US20100021931A1, “Fluorescence based reporter construct for the direct detection of TGF-beta receptor activation and modulators thereof” (Technische Universitat Dresden, priority 2008, published 2010).

What was measured:
[1] = tested on: phosphorylated Smad1/5 transcription factors; assay: phospho-SMAD1/5/8 antibody staining of fixed embryos; assay type: in vivo, Danio rerio; conditions: 30% epiboly
Excerpt: While at that stage there is not yet a morphological marker for the prospective dorsal or ventral sides of the embryo, BMP pathway activation can be detected by accumulation of phosphorylated Smad1/5 transcription factors in the prospective ventral nuclei. […] As shown in FIG. 3 (top), fluorescence of the TIPF reporter (left) coincides with the region of increased pSmad staining (center).

homozygous tkv mutants = assay: Rescue of tkv mutant flies by the ubiquitin-promoter reporter transgene; assay type: in vivo, Drosophila; conditions: expressed from the ubiquitin promoter in transgenic flies
Excerpt: Using P-element mediated transgenesis with the plasmids described above transgenic fly lines were generated in a w^1118 background expressing the TIPF fusion protein under control of the ubiquitously expressed Ubiquitin promoter or in a tissue specific manner from the UAS promotor. For both transgenic construct insertions on all three major chromosomes were obtained. Insertions on the X chromosome were balanced with FM6 w^−, 2nd chromosome insertion were balanced with CyO and 3rd chromosomal insertions with TM3, Sb.

[2] = tested on: zebrafish BMP receptor ALK3; assay: Zebrafish ALK3 reporter in zebrafish assays according to example 1; assay type: in vivo; conditions: assays as in example 1
Excerpt: To generate the zebrafish ALK3 reporter construct, the Tkv CDS was excised from the TIPF reporter (as constructed in example 1) with PstI and EcoRI to obtain the linearized expression vector without the TGF-beta receptor according to SEQ ID No. 22. In this vector the corresponding full length cDNA encoding the zebrafish ALK3 according to SEQ ID No. 2 was cloned, which was amplified from a custom cDNA library using primers carrying EcoRI (5′primer) and NsiI (3′primer).
Zebrafish assays were performed according to example 1.

Chain of zebrafish BMP receptor ALK3 (as listed by the source): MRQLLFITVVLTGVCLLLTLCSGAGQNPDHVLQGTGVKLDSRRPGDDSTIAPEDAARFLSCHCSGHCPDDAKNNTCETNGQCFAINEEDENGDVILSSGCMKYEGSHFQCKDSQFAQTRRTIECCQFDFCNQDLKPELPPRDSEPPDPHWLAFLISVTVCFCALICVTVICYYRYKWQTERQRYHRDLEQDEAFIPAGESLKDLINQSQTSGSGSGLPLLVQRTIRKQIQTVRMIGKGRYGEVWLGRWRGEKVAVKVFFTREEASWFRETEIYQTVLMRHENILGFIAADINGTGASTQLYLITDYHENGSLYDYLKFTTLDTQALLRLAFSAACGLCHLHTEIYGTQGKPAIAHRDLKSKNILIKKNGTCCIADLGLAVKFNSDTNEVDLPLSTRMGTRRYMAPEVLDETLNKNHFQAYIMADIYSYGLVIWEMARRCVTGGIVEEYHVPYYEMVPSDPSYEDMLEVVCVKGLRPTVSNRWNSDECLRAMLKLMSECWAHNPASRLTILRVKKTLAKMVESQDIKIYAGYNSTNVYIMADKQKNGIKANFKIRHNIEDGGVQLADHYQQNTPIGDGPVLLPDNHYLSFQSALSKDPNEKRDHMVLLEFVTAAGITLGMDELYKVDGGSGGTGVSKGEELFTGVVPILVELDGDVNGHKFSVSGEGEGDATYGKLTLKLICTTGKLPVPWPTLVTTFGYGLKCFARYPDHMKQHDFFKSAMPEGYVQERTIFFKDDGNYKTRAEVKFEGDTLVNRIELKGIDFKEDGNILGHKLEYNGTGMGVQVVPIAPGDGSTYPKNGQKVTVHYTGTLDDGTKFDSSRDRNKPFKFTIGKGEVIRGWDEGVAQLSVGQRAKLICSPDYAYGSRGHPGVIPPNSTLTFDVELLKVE

Substance	reporter fluorescence versus region of phospho-Smad staining [1]	rescue of lethality of homozygous tkv mutants (homozygous tkv mutants)	behaviour of reporter in zebrafish assays [2]
TIPF reporter: fusion protein of Drosophila Tkv, an inverse pericam core and Drosophila FKBP12 linked by short linkers	coincided with the region of BMP pathway activation	rescue the lethality associated with homozygous tkv mutants to full adult survival	–
zebrafish ALK3 reporter: Inverse Pericam core and Drosophila FKBP12 cassette fused to the zebrafish BMP receptor ALK3	–	–	behaved like the fly version used in example 1
